From patent EP3502102A1, “STING INHIBITORS” (ECOLE POLYTECHNIQUE FEDERALE DE LAUSANNE (EPFL), priority 2017, dated 2019)

Columns and labels:
[1] = target: T1, TLR-4 (Mus musculus, UniProt Q9QUK6); assay: Ifnb1 mRNA (RT-qPCR) in BMDMs stimulated with LPS (control); type: cell-based; conditions: 0.25 µM
T1 construct: endogenous in cells; host or cells: BMDMs from wild type mice
T1 sequence (Q9QUK6 26-835): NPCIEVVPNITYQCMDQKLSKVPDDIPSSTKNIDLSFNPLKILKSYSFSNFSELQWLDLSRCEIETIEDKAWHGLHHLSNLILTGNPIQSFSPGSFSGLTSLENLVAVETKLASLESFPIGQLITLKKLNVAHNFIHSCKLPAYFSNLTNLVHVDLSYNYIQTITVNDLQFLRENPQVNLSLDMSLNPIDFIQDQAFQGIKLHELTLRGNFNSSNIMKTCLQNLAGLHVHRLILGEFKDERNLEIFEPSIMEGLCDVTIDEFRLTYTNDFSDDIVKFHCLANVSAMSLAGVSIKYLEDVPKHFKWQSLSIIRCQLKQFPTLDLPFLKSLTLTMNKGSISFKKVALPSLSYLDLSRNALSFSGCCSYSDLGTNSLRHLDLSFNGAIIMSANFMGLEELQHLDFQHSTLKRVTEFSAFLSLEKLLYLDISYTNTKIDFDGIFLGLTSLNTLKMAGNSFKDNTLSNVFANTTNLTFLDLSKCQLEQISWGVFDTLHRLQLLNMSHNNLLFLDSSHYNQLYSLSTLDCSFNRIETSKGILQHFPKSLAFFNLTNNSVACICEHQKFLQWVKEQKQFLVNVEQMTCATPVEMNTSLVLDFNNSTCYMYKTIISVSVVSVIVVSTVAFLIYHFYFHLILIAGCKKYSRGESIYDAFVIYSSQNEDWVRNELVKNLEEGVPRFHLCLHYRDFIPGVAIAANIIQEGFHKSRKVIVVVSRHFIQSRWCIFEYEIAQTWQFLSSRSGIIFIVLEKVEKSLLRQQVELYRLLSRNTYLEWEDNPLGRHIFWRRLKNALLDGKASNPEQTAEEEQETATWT
T1 sequence (Q9JHF9 19-160 partner): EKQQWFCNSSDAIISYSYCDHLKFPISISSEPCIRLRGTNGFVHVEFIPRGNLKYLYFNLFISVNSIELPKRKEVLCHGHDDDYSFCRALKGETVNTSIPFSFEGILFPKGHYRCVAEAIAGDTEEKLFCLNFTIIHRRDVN
Procedure: (§1) Reporter activity was measured 16 h after compound treatment. A nonlinear regression analysis was performed. […] Circles indicate substitutes compared to C-176. d, e, Chemical compounds from (c) were tested at 0.5 µM for inhibitory activity in HEK293T cells transfected with STING (e) or RIG-I (f) in conjunction with IFN-• luciferase reporter, respectively. b, e, f, Values of inhibitor-treated cells were normalized to DMSO-treated cells. […] Cytokine levels were normalized to DMSO-treated control cells. A nonlinear regression analysis was performed for cGAMP stimulation. b, c, BMDMs were pre-treated with C-178 (0.25 µM) and stimulated with cGAMP, cyclic di-GMP, CMA, 90mer dsDNA or LPS for 3 h. The induction of Ifnb1 mRNA levels was assessed by RT-qPCR. d, Heatmaps of RNA sequencing analysis of BMDMs treated with DMSO or CMA and with or without addition of C-178. […] Reporter activity was measured 16 h after transfection and values were normalized to DMSO-treated control cells. c, BMDMs were treated with C-178 (0.25 µM) for 1 h, washed or left untreated and after an additional hour stimulated with cGAMP. […] Flag-STING was immunoprecipitated from whole cell lysate and analysed by autoradiography. In parallel, cell lysates were analysed by immunoblotting for p-TBK1 and STING. d, HEK293T cells expressing STING were treated as indicated (C-178 (1 µM)) and stimulated with CMA for 1.5 h. […]

[2] = test system: BMDMs; assay: RNA sequencing of BMDMs with or without CMA; type: cell-based, mouse; conditions: pre-treatment with C-178, CMA
Procedure: as §1

[3] = target: T2, hsSTING(AA1-138)-mmSTING(AA138-378) (UniProt Q3TBT3+Q86WV6); assay: IFN reporter in HEK293T cells, chimeric construct 1; type: cell-based; conditions: reversed construct (human N-terminal, mouse C-terminal part); 0.5 µm
T2 construct: hsSTING(AA1-138)-mmSTING(AA138-378); expressed in transfected cells; host or cells: HEK293T
Procedure: as §1

[4] = target: T3, STING (Mus musculus, UniProt Q3TBT3); assay: IFN-beta luciferase reporter in HEK293T cells transfected with STING, alone or with a cyclic dinucleotide synthase; type: cell-based; design: expressed in transfected cells; host or cells: HEK293T
T3 sequence (Q3TBT3 1-378): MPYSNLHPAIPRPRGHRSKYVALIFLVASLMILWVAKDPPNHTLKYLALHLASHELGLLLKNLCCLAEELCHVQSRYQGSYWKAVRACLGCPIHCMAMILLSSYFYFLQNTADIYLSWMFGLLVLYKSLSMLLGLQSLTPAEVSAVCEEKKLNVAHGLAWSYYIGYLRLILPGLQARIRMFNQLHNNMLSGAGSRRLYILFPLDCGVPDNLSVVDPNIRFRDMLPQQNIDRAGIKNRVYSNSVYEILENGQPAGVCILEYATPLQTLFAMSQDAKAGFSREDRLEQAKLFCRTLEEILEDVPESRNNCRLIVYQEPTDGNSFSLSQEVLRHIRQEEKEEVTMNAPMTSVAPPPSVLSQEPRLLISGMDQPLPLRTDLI
Procedure: Reporter activity was measured 16 h after compound treatment. A nonlinear regression analysis was performed. […] Cytokine levels were normalized to DMSO-treated control cells. […] Nuclei were stained with DAPI. […] Depicted genes were measured by RT-qPCR. […] 16 h later Luciferase activity was measured. […] Flag-STING was immunoprecipitated and analysed by autoradiography.
HEK293T cells expressing murine STING with an N-terminal mCherry-tag ^28 were transfected using GeneJuice (Millipore) with a construct encoding for cyclic di-GMP synthase in conjunction with an IFN-• firefly luciferase reporter plasmid. 3 h after transfection cells were seeded in […] (Corning) coated with library compounds. For each compounds, a 40 nl volume was selected to obtain a concentration of 10 µM in the assay plates. The amount of DMSO in each well was normalised to 0.1%. After overnight treatment, cells were lysed in lysis buffer (25 mM Tris-phosphate (pH 7.8), 2 mM DTT, 2 mM 1,2-diaminocyclohexane-N,N,N',N'-tetraacetic acid, 10% glycerol, 1% Triton® X-100) for 20 min followed by the addition of firefly luciferase. Reporter activity was measured using a Tecan Infinite plate reader. The screen was performed using on ∼ 20.000 compounds from a chemically diverse compound collection available at the BSF core facility at EPFL.
In these cells, transient transfection of vectors encoding for cyclic di-GMP synthase (cdG-Syn) and an IFN-• reporter leads to robust induction of firefly luciferase activity. We used this system to perform a high-throughput chemical screen with a library of ∼ 20.000 small molecule compounds (Fig. 6b). To increase the selectivity of candidate compounds against the STING pathway, hits from the primary screen were counter-screened for their effect on RIG-I-driven activation of the IFN-• reporter. […] To further validate the two small molecules, we treated wild-type HEK293T cells with C-178 and C-176, in which STING was either expressed alone or in conjunction with cdG-Syn. […] We next conducted a limited structure-activity relationship (SAR) analysis. Since both C-178 and C-176 share a characteristic nitrofuran moiety, we prepared analogues of C-176/8 in which this structural motif was substituted (Fig. 1c).

[5] = target: T3, STING; assay: Type I IFN bioassay of BMDMs stimulated with cGAMP; type: cell-based; design: endogenous in cells; host or cells: BMDMs from wild type mice; conditions: BMDMs pre-treated, 0.02 µM- 2.5 µM, read-out: calculated IC50, production of type I IFNs
Procedure: as §1

[6] = target: T3, STING; assay: Blue native gel assay of STING clusters; type: cell-based; design: expressed in transfected cells; host or cells: HEK293T; conditions: C-178, C-176 1 µM, 2-BP 50 µM; CMA 1.5 h
Procedure: as §1

T2 sequence (Q86WV6 1-138, one chain of several): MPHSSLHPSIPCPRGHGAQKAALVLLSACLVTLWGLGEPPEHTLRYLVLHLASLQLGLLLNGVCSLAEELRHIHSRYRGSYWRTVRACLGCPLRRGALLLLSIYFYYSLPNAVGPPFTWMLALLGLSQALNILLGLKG

Structure (SMILES): O=C(Nc1ccc2c(c1)oc1ccccc12)c1ccc([N+](=O)[O-])o1 [C-178, N-dibenzo[b,d]furan-3-yl-5-nitro-2-furamide]
- activity against the TLR-4 agonist LPS [1]: not active
- significantly affected induced expression, number of the 500 most up-regulated genes after CMA [2]: 498
- significantly affected induced expression, share of the 500 most up-regulated genes after CMA [2]: 99.6%
- IFN reporter activity of chimeric construct [3]: inactive
- half-maximal inhibitory concentration (IC50) values, IFN-• reporter activity ([4]; wild-type HEK293T, STING expressed alone or in conjunction with cdG-Syn, 0.01-5µM, 16 h): nanomolar
- IC50 [5]: ~23 nM

Structure (SMILES): CCCCCCCCCCCCCCC(Br)C(=O)O (centres unmarked) [2-bromopalmitate, reference compound]
- assembly of STING clusters [6]: blocked

Structure (SMILES): O=C(Nc1ccc(I)cc1)c1ccco1 [C-176-009]
- inhibitory capacity against STING ([4]; derivatives tested at 0.5 µM, HEK293T transfected with STING): inactive
